Experimental data published in patent publication US20110129455A1, “INHIBITORS OF AKT ACTIVITY” (priority 2008, published 2011).

Molecular target: T1, full length AKT1 (Homo sapiens, UniProt P31749)
T1 construct: Full-length human AKT1 gene was amplified by PCR; His tag (from vector pFastBacHTb; N-terminal position is own knowledge of the vector) (N); made in house; host or cells: baculovirus; Sf9 / T. ni insect cells
Assay: Full-length AKT enzyme assay (substrate phosphorylation, SPA)
Type: biochemical
Details: in at least one experimental run; pIC50 = -log(IC50), IC50 in molar units; 4 uM ATP, 10 nM activated AKT enzyme; read-out: pIC50 against full length AKT1 (converted)
From the text: Cloning of Full-Length Human (FL) AKT1:
Full-length human AKT1 gene was amplified by PCR from a plasmid containing myristylated-AKT1-ER (gift from Robert T. Abraham, Duke University under MTA, described in Klippel et al. in Molecular and Cellular Biology 1998 Volume 18 p. 5699) using the 5′ primer: SEQ. ID NO: 2
5′ […] 3′ and the 3′ primer: SEQ. ID NO: 3 […] 3′. The 5′ primer included a BamHl site and the 3′primer included an Xhol site for cloning purposes. The resultant PCR product was subcloned in pcDNA3 as a BamHl/Xhol fragment. A mutation in the sequence (TGC) coding for a Cysteine^25 was converted to the wild-type AKT1 sequence (CGC) coding for an Arginine^25 by site-directed mutagenesis using the QuikChange® Site Directed Mutagenesis Kit (Stratagene). The AKT1 mutagenic primer: SEQ. ID NO: 4 5′ […] and selection primer: SEQ. […] For expression/purification purposes, AKT1 was isolated as a BamHl/Xhol fragment and cloned into the BamHl/Xhol sites of pFastbacHTb (Invitrogen).
Expression was done using the BAC-to-BAC Baculovirus Expression System from Invitrogen (catalog #10359-016). […]
Compounds of the present invention were tested for AKT 1, 2, and 3 protein serine kinase inhibitory activity in substrate phosphorylation assays. […] Substrate phosphorylation was detected by the following procedure. […]

T1 sequence (P31749 whole entry): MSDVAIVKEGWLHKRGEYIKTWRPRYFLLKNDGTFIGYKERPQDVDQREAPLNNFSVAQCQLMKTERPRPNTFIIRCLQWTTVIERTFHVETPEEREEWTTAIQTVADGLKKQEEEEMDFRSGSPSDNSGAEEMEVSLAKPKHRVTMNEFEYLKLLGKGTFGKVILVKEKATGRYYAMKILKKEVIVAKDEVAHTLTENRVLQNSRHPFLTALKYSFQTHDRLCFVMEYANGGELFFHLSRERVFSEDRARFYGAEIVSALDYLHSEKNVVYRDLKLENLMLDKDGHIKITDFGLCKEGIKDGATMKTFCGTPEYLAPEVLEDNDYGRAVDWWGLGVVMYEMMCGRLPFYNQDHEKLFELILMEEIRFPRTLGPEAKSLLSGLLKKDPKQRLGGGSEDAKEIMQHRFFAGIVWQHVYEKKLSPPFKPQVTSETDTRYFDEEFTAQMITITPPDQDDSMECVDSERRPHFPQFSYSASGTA

IC50: 6.31 nM
SMILES: Cn1nccc1-n1cc(C(=O)N[C@H](CN)Cc2cccc(F)c2)cc1Cl [Example 2, N-{(1S)-2-amino-1-[(3-fluorophenyl)methyl]ethyl}-5-chloro-1-(1-methyl-1H-pyrazol-5-yl)-1H-pyrrole-3-carboxamide]
